Measurements as given in patent US11214594B2, “Antimicrobial peptide having synergistic antibacterial effect with antibiotics on multidrug resistant bacteria, and use thereof” (priority 2016, dated 2022).
≈ marks a conversion by molar mass, not a printed value. Where a SMILES comes first, the peptide text is derived from it. [ ]: non-standard residue; d: D form.

Assays:
MDRAB 12035 = test: MIC of antibiotic during combined treatment with antimicrobial peptide; type: cell-based, Acinetobacter baumannii
In short: (§1)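 Strains in MH medium at 2×10^6 CFU/ml were mixed with peptide diluted stepwise (2:1) from its MIC, then antibiotic dilutions in MH medium were added to give the antibiotic MIC. The reversed set-up, peptide titrated against fixed antibiotic, gave the peptide MIC.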

MDRST 8007 = test: Minimal inhibitory concentration (MIC), single agent; type: cell-based, Salmonella typhimurium; details: agent alone
In short: (§2)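 MIC read-out = lowest peptide level with no bacterial proliferation. Strains diluted in MH medium to 2×10^6 CFU; peptide twofold serial dilutions in MH added 1:1 in microtiter wells.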

MDREC 1229 [1] = test: MIC of antibiotic during combined treatment with antimicrobial peptide; type: cell-based, Escherichia coli
In short: as §1

S. epidermidis = test: microbe, parasite or virus in culture; type: cell-based, Staphylococcus epidermidis
In short: as §2

A. baumannii = test: MIC of antibiotic during combined treatment with antimicrobial peptide; type: cell-based, Acinetobacter baumannii; details: for Antibiotic MIC, Erythromycin / Antibiotic MIC, Linezolid / Antibiotic MIC, Vancomycin: A. baumannii
In short: (§3)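 Checkerboard-type MIC of peptide–antibiotic mixtures in MH medium: the antibiotic was serially diluted in MH medium and added to wells, then the reversed arrangement was also tested.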

E. coli [2] = test: as above; type: cell-based, Escherichia coli; details: for Antibiotic MIC, Erythromycin / Antibiotic MIC, Linezolid / Antibiotic MIC, Vancomycin: E. coli
In short: as §3

S. aureus = test: microbe, parasite or virus in culture; type: cell-based, Staphylococcus aureus
In short: as §2

B. subtilis = test: microbe, parasite or virus in culture; type: cell-based, Bacillus subtilis
In short: as §2

MDRPA 2003 = type: cell-based, Pseudomonas aeruginosa
In short: as §2

MDRPA 2002 = type: cell-based, Pseudomonas aeruginosa
In short: as §2

E. coli [3] = test: microbe, parasite or virus in culture; type: cell-based, Escherichia coli; details: 16 h
In short: as §2

MDREC 1229 [4] = test: microbe, parasite or virus in culture; type: cell-based, Escherichia coli
In short: as §2

P. aeruginosa = test: microbe, parasite or virus in culture; type: cell-based, Pseudomonas aeruginosa
In short: as §2

MRSA 3126 = type: cell-based, Staphylococcus aureus; details: 3126
In short: as §2

MRSA 3114 = type: cell-based, Staphylococcus aureus; details: 3114
In short: as §2

MDREC 1238 = type: cell-based, Escherichia coli
In short: as §2

[5] = peptide treatment concentration 1 μg/ml
[6] = peptide treatment concentration 2 μg/ml
[7] = peptide treatment concentration 4 μg/ml
[8] = peptide treatment concentration 6 μg/ml
[9] = peptide treatment concentration 8 μg/ml
[10] = peptide treatment concentration 16 μg/ml
[11] = peptide treatment concentration 32 μg/ml
[12] = peptide treatment concentration 64 μg/ml
[13] = combined with peptide at 1 μg/ml
[14] = combined with peptide at 2 μg/ml
[15] = combined with peptide at 4 μg/ml
[16] = combined with peptide at 6 μg/ml
[17] = combined with peptide at 8 μg/ml
[18] = combined with peptide at 16 μg/ml
[19] = combined with peptide at 32 μg/ml
[20] = combined with peptide at 64 μg/ml

CC[C@H](C)[C@H](NC(=O)[C@H](CCCCN)NC(=O)[C@H](Cc1c[nH]c2ccccc12)NC(=O)[C@@H](N)CCCNC(=N)N)C(=O)N[C@@H](Cc1ccccc1)C(=O)N[C@@H](CCCCN)C(=O)N[C@@H](CCCCN)C(=O)N[C@H](C(=O)N[C@H](CC(C)C)C(=O)N[C@@H](CCCCN)C(=O)N[C@@H](CC(C)C)C(=O)N[C@@H](CC(C)C)C(=O)N[C@@H](Cc1c[nH]cn1)C(=O)N[C@@H](CCCCN)C(=O)N[C@@H](C)C(=O)N[C@@H](CCCCN)C(=O)N[C@@H](CCCCN)C(=O)N[C@@H](Cc1c[nH]c2ccccc12)C(N)=O)[C@@H](C)CC [PapMA-22, RWK IFK KIl KLL HKA KKW-NH2] (H-RWKIFKKI[dL]KLLHKAKKW-NH2; N-terminus assumed)
Erythromycin MIC during combined treatment with peptide (MDRAB 12035; [5]): 32 µg/mL
Linezolid MIC during combined treatment with peptide (MDRAB 12035; [5]): >128 µg/mL
Vancomycin MIC during combined treatment with peptide (MDRAB 12035; [5]): >128 µg/mL
Erythromycin MIC during combined treatment with peptide (MDRAB 12035; [6]): 32 µg/mL
Linezolid MIC during combined treatment with peptide (MDRAB 12035; [6]): >128 µg/mL
Vancomycin MIC during combined treatment with peptide (MDRAB 12035; [6]): >128 µg/mL
Erythromycin MIC during combined treatment with peptide (MDRAB 12035; [7]): 16 µg/mL
Linezolid MIC during combined treatment with peptide (MDRAB 12035; [7]): 64 µg/mL
Vancomycin MIC during combined treatment with peptide (MDRAB 12035; [7]): 128 µg/mL
Erythromycin MIC during combined treatment with peptide (MDRAB 12035; [8]): 2 µg/mL
Linezolid MIC during combined treatment with peptide (MDRAB 12035; [8]): 16 µg/mL
Vancomycin MIC during combined treatment with peptide (MDRAB 12035; [8]): 32 µg/mL
Erythromycin MIC during combined treatment with peptide (MDRAB 12035; [9]): 1 µg/mL
Linezolid MIC during combined treatment with peptide (MDRAB 12035; [9]): 16 µg/mL
Vancomycin MIC during combined treatment with peptide (MDRAB 12035; [9]): 16 µg/mL
Erythromycin MIC during combined treatment with peptide (MDRAB 12035; [10]): 0.25 µg/mL
Linezolid MIC during combined treatment with peptide (MDRAB 12035; [10]): 8 µg/mL
Vancomycin MIC during combined treatment with peptide (MDRAB 12035; [10]): 8 µg/mL
Erythromycin MIC during combined treatment with peptide (MDRAB 12035; [11]): 0 µg/mL
Linezolid MIC during combined treatment with peptide (MDRAB 12035; [11]): 0 µg/mL
Vancomycin MIC during combined treatment with peptide (MDRAB 12035; [11]): 0 µg/mL
Erythromycin MIC during combined treatment with peptide (MDRAB 12035; [12]): 0 µg/mL
Linezolid MIC during combined treatment with peptide (MDRAB 12035; [12]): 0 µg/mL
Vancomycin MIC during combined treatment with peptide (MDRAB 12035; [12]): 0 µg/mL
Minimal inhibitory concentration MIC (MDRST 8007): 32 µg/mL (≈ 13.5 µM)
Antibiotic MIC, Erythromycin (MDREC 1229 [1]; [5]): 128 µg/mL
Antibiotic MIC, Linezolid (MDREC 1229 [1]; [5]): >128 µg/mL
Antibiotic MIC, Vancomycin (MDREC 1229 [1]; [5]): >128 µg/mL
Antibiotic MIC, Erythromycin (MDREC 1229 [1]; [6]): 32 µg/mL
Antibiotic MIC, Linezolid (MDREC 1229 [1]; [6]): >128 µg/mL
Antibiotic MIC, Vancomycin (MDREC 1229 [1]; [6]): >128 µg/mL
Antibiotic MIC, Erythromycin (MDREC 1229 [1]; [7]): 32 µg/mL
Antibiotic MIC, Linezolid (MDREC 1229 [1]; [7]): 128 µg/mL
Antibiotic MIC, Vancomycin (MDREC 1229 [1]; [7]): >128 µg/mL
Antibiotic MIC, Erythromycin (MDREC 1229 [1]; [8]): 16 µg/mL
Antibiotic MIC, Linezolid (MDREC 1229 [1]; [8]): 64 µg/mL
Antibiotic MIC, Vancomycin (MDREC 1229 [1]; [8]): >128 µg/mL
Antibiotic MIC, Erythromycin (MDREC 1229 [1]; [9]): 4 µg/mL
Antibiotic MIC, Linezolid (MDREC 1229 [1]; [9]): 32 µg/mL
Antibiotic MIC, Vancomycin (MDREC 1229 [1]; [9]): 64 µg/mL
Antibiotic MIC, Erythromycin (MDREC 1229 [1]; [10]): 2 µg/mL
Antibiotic MIC, Linezolid (MDREC 1229 [1]; [10]): 16 µg/mL
Antibiotic MIC, Vancomycin (MDREC 1229 [1]; [10]): 32 µg/mL
Antibiotic MIC, Erythromycin (MDREC 1229 [1]; [11]): 0 µg/mL
Antibiotic MIC, Linezolid (MDREC 1229 [1]; [11]): 0 µg/mL
Antibiotic MIC, Vancomycin (MDREC 1229 [1]; [11]): 0 µg/mL
Antibiotic MIC, Erythromycin (MDREC 1229 [1]; [12]): 0 µg/mL
Antibiotic MIC, Linezolid (MDREC 1229 [1]; [12]): 0 µg/mL
Antibiotic MIC, Vancomycin (MDREC 1229 [1]; [12]): 0 µg/mL
Minimal inhibitory concentration MIC (S. epidermidis): >128 µg/mL
Synergistic effect of antibacterial activity with existing antibiotics compared with PapMA-1 (A. baumannii; A. baumannii and MDRAB 12035): level similar to that of PapMA-1 peptide
Antibiotic MIC, Erythromycin (A. baumannii; [13]): 32 µg/mL
Antibiotic MIC, Linezolid (A. baumannii; [13]): >128 µg/mL
Antibiotic MIC, Vancomycin (A. baumannii; [13]): >128 µg/mL
Antibiotic MIC, Erythromycin (A. baumannii; [14]): 32 µg/mL
Antibiotic MIC, Linezolid (A. baumannii; [14]): >128 µg/mL
Antibiotic MIC, Vancomycin (A. baumannii; [14]): 128 µg/mL
Antibiotic MIC, Erythromycin (A. baumannii; [15]): 8 µg/mL
Antibiotic MIC, Linezolid (A. baumannii; [15]): 32 µg/mL
Antibiotic MIC, Vancomycin (A. baumannii; [15]): 64 µg/mL
Antibiotic MIC, Erythromycin (A. baumannii; [16]): 2 µg/mL
Antibiotic MIC, Linezolid (A. baumannii; [16]): 16 µg/mL
Antibiotic MIC, Vancomycin (A. baumannii; [16]): 32 µg/mL
Antibiotic MIC, Erythromycin (A. baumannii; [17]): 1 µg/mL
Antibiotic MIC, Linezolid (A. baumannii; [17]): 8 µg/mL
Antibiotic MIC, Vancomycin (A. baumannii; [17]): 8 µg/mL
Antibiotic MIC, Erythromycin (A. baumannii; [18]): 0 µg/mL
Antibiotic MIC, Linezolid (A. baumannii; [18]): 0 µg/mL
Antibiotic MIC, Vancomycin (A. baumannii; [18]): 0 µg/mL
Antibiotic MIC, Erythromycin (A. baumannii; [19]): 0 µg/mL
Antibiotic MIC, Linezolid (A. baumannii; [19]): 0 µg/mL
Antibiotic MIC, Vancomycin (A. baumannii; [19]): 0 µg/mL
Antibiotic MIC, Erythromycin (A. baumannii; [20]): 0 µg/mL
Antibiotic MIC, Linezolid (A. baumannii; [20]): 0 µg/mL
Antibiotic MIC, Vancomycin (A. baumannii; [20]): 0 µg/mL
Synergistic effect of antibacterial activity with existing antibiotics compared with PapMA-1 (E. coli [2]; E. coli and MDREC1229): level similar to that of the PapMA-1 peptide
Antibiotic MIC, Erythromycin (E. coli [2]; erythromycin combined with peptide at 1 μg/ml): 128 µg/mL
Antibiotic MIC, Erythromycin (E. coli [2]; erythromycin combined with peptide at 2 μg/ml): 32 µg/mL
Antibiotic MIC, Erythromycin (E. coli [2]; erythromycin combined with peptide at 4 μg/ml): 16 µg/mL
Antibiotic MIC, Erythromycin (E. coli [2]; erythromycin combined with peptide at 6 μg/ml): 8 µg/mL
Antibiotic MIC, Erythromycin (E. coli [2]; erythromycin combined with peptide at 8 μg/ml): 2 µg/mL
Antibiotic MIC, Erythromycin (E. coli [2]; erythromycin combined with peptide at 16 μg/ml): 1 µg/mL
Antibiotic MIC, Erythromycin (E. coli [2]; erythromycin combined with peptide at 32 μg/ml): 0 µg/mL
Antibiotic MIC, Erythromycin (E. coli [2]; erythromycin combined with peptide at 64 μg/ml): 0 µg/mL
Antibiotic MIC, Linezolid (E. coli [2]; linezolid combined with peptide at 1 μg/ml): >128 µg/mL
Antibiotic MIC, Linezolid (E. coli [2]; linezolid combined with peptide at 2 μg/ml): 128 µg/mL
Antibiotic MIC, Linezolid (E. coli [2]; linezolid combined with peptide at 4 μg/ml): 64 µg/mL
Antibiotic MIC, Linezolid (E. coli [2]; linezolid combined with peptide at 6 μg/ml): 32 µg/mL
Antibiotic MIC, Linezolid (E. coli [2]; linezolid combined with peptide at 8 μg/ml): 32 µg/mL
Antibiotic MIC, Linezolid (E. coli [2]; linezolid combined with peptide at 16 μg/ml): 16 µg/mL
Antibiotic MIC, Linezolid (E. coli [2]; linezolid combined with peptide at 32 μg/ml): 0 µg/mL
Antibiotic MIC, Linezolid (E. coli [2]; linezolid combined with peptide at 64 μg/ml): 0 µg/mL
Antibiotic MIC, Vancomycin (E. coli [2]; vancomycin combined with peptide at 1 μg/ml): >128 µg/mL
Antibiotic MIC, Vancomycin (E. coli [2]; vancomycin combined with peptide at 2 μg/ml): >128 µg/mL
Antibiotic MIC, Vancomycin (E. coli [2]; vancomycin combined with peptide at 4 μg/ml): 128 µg/mL
Antibiotic MIC, Vancomycin (E. coli [2]; vancomycin combined with peptide at 6 μg/ml): 64 µg/mL
Antibiotic MIC, Vancomycin (E. coli [2]; vancomycin combined with peptide at 8 μg/ml): 32 µg/mL
Antibiotic MIC, Vancomycin (E. coli [2]; vancomycin combined with peptide at 16 μg/ml): 16 µg/mL
Antibiotic MIC, Vancomycin (E. coli [2]; vancomycin combined with peptide at 32 μg/ml): 0 µg/mL
Antibiotic MIC, Vancomycin (E. coli [2]; vancomycin combined with peptide at 64 μg/ml): 0 µg/mL
Minimal inhibitory concentration MIC (S. aureus): >128 µg/mL
Minimal inhibitory concentration MIC (B. subtilis): >128 µg/mL
Minimal inhibitory concentration MIC (MDRPA 2003): 32 µg/mL (≈ 13.5 µM)
Minimal inhibitory concentration MIC (MDRPA 2002): 32 µg/mL (≈ 13.5 µM)
Minimal inhibitory concentration MIC (E. coli [3]): 32 µg/mL (≈ 13.5 µM)
Minimal inhibitory concentration MIC (MDREC 1229 [4]): 32 µg/mL (≈ 13.5 µM)
Peptide MIC, peptide alone (MDREC 1229 [4]): 32 µg/mL
Minimal inhibitory concentration MIC (P. aeruginosa): 16 µg/mL (≈ 6.77 µM)
Minimal inhibitory concentration MIC (MRSA 3126): >128 µg/mL
Minimal inhibitory concentration MIC (MRSA 3114): >128 µg/mL
Minimal inhibitory concentration MIC (MDREC 1238): 32 µg/mL (≈ 13.5 µM)
